The target of one data set is GFP-rCB1R (Rattus norvegicus, UniProt P20272). The experiment in a line: cAMP inhibition. The format is cell-based. The following applies: for ΔEC50 / ΔEMax: difference between CP55,940 alone and maximal concentration of GAT compound.
Data set [1] addresses T1, hCB1R (Homo sapiens, UniProt P21554). The experiment in a line: DiscoveRx HitHunter cAMP inhibition assay. The conditions noted are these: for PAM bias between cAMP inhibition and βarrestin2 recruitment (ΔΔLogR): 100 nM CP55,940 as agonist; for PAM bias between cAMP inhibition and βarrestin2 recruitment (ΔΔLogR) / agonist bias between cAMP inhibition and βarrestin2 recruitment (ΔΔLogR): 90 min, operational model; for agonist bias between cAMP inhibition and βarrestin2 recruitment (ΔΔLogR): GAT compound alone. (Arrestin recruitment assays detect the binding of arrestin to an activated receptor.)

The target of data set [2] is T1, hCB1R. The experiment in a line: DiscoveRx PathHunter βarrestin2 recruitment assay. The conditions noted are these: for concentrations promoting CP55,940-dependent βarrestin2 recruitment: 100 nM CP55,940, 90 min.
Data set [3] deals with CFA-induced mechanical allodynia. The following applies: same CFA model; cited from earlier work.
The test system is the same in data set [4]. The experiment in a line: CFA-induced inflammatory nociception, mechanical allodynia. The format is in vivo, mouse. The following applies: for mechanical paw withdrawal threshold at 30 min post-injection: CFA-injected paw; for mechanical paw withdrawal threshold at 30 min post-injection / anti-allodynic efficacy at 4 h post injection: vs vehicle; for duration of efficacy post injection / suppression of CFA-induced mechanical allodynia in CB1KO mice: ipsilateral paw; for paw withdrawal thresholds in the contralateral paw: 0.1-30 mg/kg i.p.; for doses that elevated mechanical paw withdrawal thresholds relative to vehicle: CFA-injected (ipsilateral) paw, WT mice.

The subject of data set [5] is C57BL/6 mice. The experiment in a line: Triad assessment: body temperature. The conditions noted are these: 0.1, 1, 3, or 10 mg/kg (i.p.); 15 min; vs vehicle.
The subject of data set [6] is C57BL/6 mice. The experiment in a line: Triad assessment: warm water tail-flick test. The following applies: 0.1-10 mg/kg i.p.; 20 min; significant vs vehicle at 3 and 10 mg/kg.
Data set [7] deals with C57BL/6 mice. The experiment in a line: Triad assessment: catalepsy. The following applies: 0.1, 1, 3, or 10 mg/kg (i.p.); 5 min; vs vehicle.
Another data set is described as follows: physchem. The following applies: pH 7.4.
Data set [8] has as its system ocular hypertensive NEE mice. The experiment in a line: Intraocular pressure in ocular hypertensive NEE mice. The conditions noted are these: topical 0.2% 9j alone.
Data set [9] has as its system autaptic hippocampal neurons. The experiment in a line: Electrophysiology in autaptic hippocampal neurons. The conditions noted are these: after 9j treatment.
The test system of data set [10] is C57BL/6 mice. The following applies: orthosteric agonist at 10 mg/kg; cited from earlier work.
Data set [11] deals with C57BL/6 mice. The conditions noted are these: orthosteric agonist at 10 mg/kg; cited from earlier work. This is another data set of the same source.
The test system of data set [12] is normotensive C57Bl/6J mice. The conditions noted are these: cited from earlier work.

≈ marks a conversion by molar mass, not a printed value. Read-outs that look alike come from different tables or passages of the source.

Chain of GFP-rCB1R (P20272 whole entry): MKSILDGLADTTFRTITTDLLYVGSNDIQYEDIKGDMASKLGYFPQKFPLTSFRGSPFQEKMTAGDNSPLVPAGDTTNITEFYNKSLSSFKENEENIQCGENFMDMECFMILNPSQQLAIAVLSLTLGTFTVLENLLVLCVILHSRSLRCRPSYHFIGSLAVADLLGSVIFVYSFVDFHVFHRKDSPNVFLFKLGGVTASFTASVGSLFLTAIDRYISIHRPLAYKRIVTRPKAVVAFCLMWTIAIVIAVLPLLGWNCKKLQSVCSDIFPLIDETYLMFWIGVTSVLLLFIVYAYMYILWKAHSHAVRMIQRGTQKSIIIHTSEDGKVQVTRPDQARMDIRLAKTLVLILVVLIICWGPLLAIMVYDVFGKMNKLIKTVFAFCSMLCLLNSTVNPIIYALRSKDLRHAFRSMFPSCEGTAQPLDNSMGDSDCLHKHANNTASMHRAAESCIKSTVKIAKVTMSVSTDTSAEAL
T1 sequence (P21554 whole entry): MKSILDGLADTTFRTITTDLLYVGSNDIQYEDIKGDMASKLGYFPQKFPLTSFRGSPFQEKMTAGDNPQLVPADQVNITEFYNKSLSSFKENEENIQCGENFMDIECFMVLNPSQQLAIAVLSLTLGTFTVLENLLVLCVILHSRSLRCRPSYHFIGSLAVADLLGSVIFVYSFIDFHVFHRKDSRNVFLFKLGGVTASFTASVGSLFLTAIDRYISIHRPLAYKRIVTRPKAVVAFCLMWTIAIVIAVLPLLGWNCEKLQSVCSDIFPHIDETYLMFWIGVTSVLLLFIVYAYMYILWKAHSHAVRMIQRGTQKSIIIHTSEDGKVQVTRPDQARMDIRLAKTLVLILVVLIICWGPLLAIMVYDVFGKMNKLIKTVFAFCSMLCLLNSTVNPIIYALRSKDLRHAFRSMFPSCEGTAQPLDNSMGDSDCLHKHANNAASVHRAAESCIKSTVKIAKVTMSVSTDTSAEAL

For the molecule `CCCCCCC(C)(C)c1ccc([C@@H]2C[C@H](O)CC[C@H]2CCCO)c(O)c1` [CP55,940, reference compound], the “CP55,940 EMax, Vehicle (0)” value at GFP-rCB1R (CP55,940 without GAT compound, upper plateau) is listed as 100 ± 6.4 % Forskolin. Further, on hCB1R [1] (standard agonist alone), the “Standard agonist EMax, HitHunter cAMP” value is given as 1.5 ± 0.07 fold over baseline. The “Standard agonist EMax, PathHunter βarrestin2” value on hCB1R [2] (standard agonist alone) amounted to 8.0 ± 1.3 fold over baseline.
Broadly, the Emax is the greatest response seen or fitted, relative to the assay's reference. Consider `O=[N+]([O-])CC(c1ccccc1)c1c(-c2ccccc2)[nH]c2ccccc12` (centres unmarked) [Compound 6d, 3-(2-Nitro-1-phenylethyl)-2-phenyl-1H-indole], for which, in [3], the “anti-allodynic efficacy at 1.5 h” value is listed as “present”, the “anti-allodynic efficacy at […] post injection” value is on record as “absent” and the “time of maximal anti-allodynic efficacy post-injection” value is 30 min. The Emax on hCB1R [1] (read-out: cAMP EMax, PAM activity, CP55,940 at EC20 + analog, 30 min, mean ± SEM) turned out to be 110 ± 6.8%.
Take `O=[N+]([O-])CC(c1ccccc1F)c1c(-c2cccc(F)c2)[nH]c2cc(F)ccc12` (centres unmarked) [Compound 6r, 6-Fluoro-2-(3-fluorophenyl)-3-(1-(2-fluorophenyl)-2-nitroethyl)-1H-indole]: on GFP-rCB1R, the ΔEC50 is -12 ± 5.7 nM and the ΔEMax is recorded as 68 ± 4.3 % Forskolin. Further, in data set [4] (30 mg/kg i.p.), the “mechanical paw withdrawal threshold at 30 min post-injection” value was “increased mechanical paw withdrawal threshold”, the “duration of efficacy post injection” value is recorded as “at least 2.5 h”, the “suppression of CFA-induced mechanical allodynia in CB1KO mice” value was “Neither” and the “anti-allodynic efficacy at 4 h post injection” value was “no longer present”. Besides, the “paw withdrawal thresholds in the contralateral paw” value in data set [4] was “without altering paw withdrawal thresholds in the contralateral paw”. Moreover, in data set [4] (i.p.), the “dose that maximally suppressed CFA-induced inflammatory pain” value is reported as 30 mg/kg and the “doses that elevated mechanical paw withdrawal thresholds relative to vehicle” value was 3 to 30 mg/kg. Also, the hypothermia entry in the data set on C57BL/6 mice [5] is “did not produce catalepsy or hypothermia”. Also, in the data set on C57BL/6 mice [6], the “anti-nociceptive effect in the tail flick assay” value was “dose-dependent anti-nociceptive effect”. Further, the catalepsy entry with C57BL/6 mice [7] is on record as “did not produce catalepsy”. In addition, on hCB1R [1], the “PAM bias between cAMP inhibition and βarrestin2 recruitment (ΔΔLogR)” value is “display bias toward cAMP inhibition”; the “agonist bias between cAMP inhibition and βarrestin2 recruitment (ΔΔLogR)” value is “agonist bias toward cAMP inhibition”. In addition, the “concentrations promoting CP55,940-dependent βarrestin2 recruitment” value on hCB1R [2] was at least 190 nM.
On GFP-rCB1R, `O=[N+]([O-])CC(c1ccccc1F)c1c(-c2cccc(F)c2)[nH]c2c(F)cccc12` (centres unmarked) [Compound 6s, 7-Fluoro-2-(3-fluorophenyl)-3-(1-(2-fluorophenyl)-2-nitroethyl)-1H-indole] gave a ΔEC50 of -12 ± 8.0 nM and a ΔEMax of 67 ± 15 % Forskolin. For the same molecule, in data set [4] (30 mg/kg i.p.), the “antinociceptive efficacy compared with 6r at […] post injection” value was “greater antinociceptive efficacy than 6r”, the “mechanical paw withdrawal threshold at 30 min post-injection” value was “increased mechanical paw withdrawal threshold”, the “duration of efficacy post injection” value is listed as “at least 2.5 h” and the “suppression of CFA-induced mechanical allodynia in CB1KO mice” value is “Neither”. For the same molecule, the “anti-allodynic efficacy at 4 h post injection” value in data set [4] (30 mg/kg i.p.) is on record as “no longer present”. For the same molecule, the “paw withdrawal thresholds in the contralateral paw” value in data set [4] is listed as “without altering paw withdrawal thresholds in the contralateral paw”. The “doses that elevated mechanical paw withdrawal thresholds relative to vehicle” value in [4] (i.p.) lay within 3 to 30 mg/kg. In addition, in the data set with C57BL/6 mice [5], the hypothermia entry was “did not produce catalepsy or hypothermia”. Further, the “anti-nociceptive effect in the tail flick assay” value in the data set with C57BL/6 mice [6] is listed as “dose-dependent anti-nociceptive effect”. In addition, the catalepsy result in the data set with C57BL/6 mice [7] is “did not produce catalepsy”. For the same molecule, on hCB1R [1], the “PAM bias between cAMP inhibition and βarrestin2 recruitment (ΔΔLogR)” value is recorded as “display bias toward cAMP inhibition”; the “agonist bias between cAMP inhibition and βarrestin2 recruitment (ΔΔLogR)” value was “agonist bias toward cAMP inhibition”. Also, the “concentrations promoting CP55,940-dependent βarrestin2 recruitment” value at hCB1R [2] was at least 3500 nM.
A word on the thermodynamic solubility: it is solubility found after equilibrating the solid with the medium. The molecule `O=[N+]([O-])CC(c1ccccn1)c1c(-c2ccccc2)[nH]c2ccccc12` (centres unmarked) [Compound 9a, 3-(2-Nitro-1-(pyridin-2-yl)ethyl)-2-phenyl-1H-indole] returned a solubility (thermodynamic) at 24 h in “physchem” of 1 µg/mL (≈ 2.91 µM).
In “physchem”, `O=[N+]([O-])CC(c1cccnc1)c1c(-c2ccccc2)[nH]c2ccccc12` (centres unmarked) [Compound 9b, 3-(2-Nitro-1-(pyridin-3-yl)ethyl)-2-phenyl-1H-indole] registered a thermodynamic solubility of 0.4 µg/mL (≈ 1.16 µM).
The same measure, in the same setting: with `O=[N+]([O-])CC(c1ccncc1)c1c(-c2ccccc2)[nH]c2ccccc12` (centres unmarked) [Compound 9c, 3-(2-Nitro-1-(pyridin-4-yl)ethyl)-2-phenyl-1H-indole] the figure was 12.6 µg/mL (≈ 36.7 µM).
In the case of `O=[N+]([O-])CC(c1ccccc1)c1c(-c2cccnc2)[nH]c2ccccc12` (centres unmarked) [Compound 9d, 3-(2-Nitro-1-phenylethyl)-2-(pyridin-3-yl)-1H-indole], the thermodynamic solubility in the data set “physchem” was 1.7 µg/mL (≈ 4.95 µM).
The same measure, in the same setting: then `O=[N+]([O-])CC(c1ccccc1)c1c(-c2ccncc2)[nH]c2ccccc12` (centres unmarked) [Compound 9e, 3-(2-Nitro-1-phenylethyl)-2-(pyridin-4-yl)-1H-indole], with 0.7 µg/mL (≈ 2.04 µM); and `O=[N+]([O-])CC(c1ccccc1)c1c(-c2ccccc2)[nH]c2cccnc12` (centres unmarked) [Compound 9f, 3-(2-Nitro-1-phenylethyl)-2-phenyl-1H-pyrrolo[3,2-b]pyridine], with 3.8 µg/mL (≈ 11.1 µM).
As for `O=[N+]([O-])CC(c1ccccc1)c1c(-c2ccccc2)[nH]c2ccncc12` (centres unmarked) [Compound 9g, 3-(2-Nitro-1-phenylethyl)-2-phenyl-1H-pyrrolo[3,2-c]pyridine], the solubility (thermodynamic) in “physchem” was 8.1 µg/mL (≈ 23.6 µM).
Same read-out and setting: with `O=[N+]([O-])CC(c1ccccc1)c1c(-c2ccccc2)[nH]c2cnccc12` (centres unmarked) [Compound 9h, 3-(2-Nitro-1-phenylethyl)-2-phenyl-1H-pyrrolo[2,3-c]pyridine] the figure was 2.3 µg/mL (≈ 6.7 µM); with `O=[N+]([O-])CC(c1ccccc1)c1c(-c2ccccc2)[nH]c2ncccc12` (centres unmarked) [Compound 9i, 3-(2-Nitro-1-phenylethyl)-2-phenyl-1H-pyrrolo[2,3-b]pyridine], 54.6 µg/mL (≈ 159 µM).
Consider `O=[N+]([O-])CC(c1ncccc1F)c1c(-c2ccccc2)[nH]c2ccccc12` (centres unmarked) [Compound 9j, 3-(1-(3-Fluoropyridin-2-yl)-2-nitroethyl)-2-phenyl-1H-indole], for which, in the data set with C57BL/6 mice [5], the hypothermia entry was “did not produce catalepsy or hypothermia”. Besides, in the data set on C57BL/6 mice [7], the catalepsy result is on record as “did not produce catalepsy”. For the same molecule, the “change in IOP from baseline, 1 hour” value in data set [8] (1 h) is −2.5 ± 1 mmHg. Moreover, the “change in IOP from baseline, 6 hours” value in [8] (6 h) is −3.6 ± 1 mmHg. Moreover, the “IOP decrease at 12 hours” value in data set [8] (12 h) is given as “no longer present”. For the same molecule, the DSE response entry in [9] is listed as “DSE was enhanced”.
For `CCCCCc1cc(O)c2c(c1)OC(C)(C)[C@@H]1CCC(C)=C[C@@H]21` [THC, Δ[9]-tetrahydrocannabinol], the catalepsy result with C57BL/6 mice [10] is given as “significant catalepsy”. In addition, the hypothermic effects result in the data set with C57BL/6 mice [11] is listed as “hypothermic effects”.
Regarding `Cc1c(C(=O)c2cccc3ccccc23)c2cccc3c2n1[C@H](CN1CCOCC1)CO3` [WIN], the results for the “effect on IOP” value in data set [12] (topical 1% WIN) and in data set [12] (topical WIN […] (subthreshold)) were “decreases IOP” and “does not affect IOP”, respectively.
